Measurements taken from US20240122180A1, “FUNGICIDAL HALOMETHYL KETONES AND HYDRATES AND THEIR MIXTURES” (FMC Corporation, priority 2020, published 2024).

Legend:
[1] = tested on: Phakopsora pachyrhizi (the causal agent of Asian soybean rust); assay: Test A: preventive spray on soybean seedlings, visual disease rating (100 = 100% control; * 50 ppm, ** 10 ppm, *** 250 ppm); assay type: in vivo; conditions: 100 = 100% disease control
How it was run: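 Soybean seedlings sprayed to run-off with compound suspended in acetone/water with 250 ppm PEG400 surfactant, inoculated next day with P. pachyrhizi spores. Kept 24 h saturated at 22 °C, then 8 days at 22 °C before visual rating of disease control (0-100) relative to controls.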

[2] = tested on: Puccinia recondita f. sp. tritici (the causal agent of wheat leaf rust); assay: Test B: preventive spray on wheat seedlings, disease rating (100 = 100% control; * 50 ppm, ** 10 ppm, *** 250 ppm); assay type: in vivo; conditions: 100 = 100% disease control
How it was run: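 Wheat seedlings sprayed to run-off with compound in acetone/water (50/50) containing 250 ppm PEG400, inoculated next day with Puccinia recondita f. sp. tritici spores. Held 24 h saturated at 20° C, then 6 days at 20° C; disease control rated 0–100 relative to controls.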

[3] = 10 ppm test suspension, soybean seedlings
[4] = 10 ppm test suspension, wheat seedlings
[5] = 10 ppm test suspension, 0 = no control
[6] = 50 ppm test suspension, 0 = no control
[7] = Phakopsora pachyrhizi, 10 ppm test suspension, 0 = no control
[8] = Puccinia recondita, 10 ppm test suspension, 0 = no control
[9] = 50 ppm test suspension, soybean seedlings
[10] = 50 ppm test suspension, wheat seedlings

O=C(OCc1ccc(Cl)c(Cl)c1)c1cnn(Cc2ccc(OCC(O)(O)C(F)(F)F)cc2)c1 [compound 49]
Test A disease control rating [1, 3]: 0%
Test B disease control rating [2, 4]: 86%

CCCO/C(=C\Oc1cccc(Cn2cc(C(=O)OCC)cn2)c1)C(F)(F)F [compound 324]
Test A disease control rating [1, 5]: 0%
Test B disease control rating [2, 5]: 0%

N#Cc1cnn(Cc2ccc(OCC3(C(F)(F)F)OCCO3)cc2)c1 [compound 209]
Test A disease control rating [1, 3]: 89%
Test B disease control rating [2, 4]: 0%

CCCOC(=O)c1ccn(Cc2ccc(OC=C(OCC)C(F)(F)F)cc2)n1 [compound 292]
Test A disease control rating [1, 5]: 100%
Test B disease control rating [2, 5]: 0%

C[Si](C)(C)CCOc1nccc(Cc2ccc(OCC3(C(F)(F)F)OCCO3)cc2)n1 [compound 314]
Test A disease control rating [1, 6]: 0%
Test B disease control rating [2, 6]: 0%

O=C(NCc1ccc(OCC2(C(F)(F)F)OCCO2)cc1)C1CC1 [compound 176]
Test A disease control rating [1, 3]: 0%
Test B disease control rating [2, 4]: 0%

O=C(OCc1ccc(F)c(F)c1)c1cnn(Cc2ccc(OCC(O)(O)C(F)(F)F)cc2)c1 [compound 50]
Test A disease control rating [1, 3]: 54%
Test B disease control rating [2, 4]: 91%

C#CCNC(=O)c1ccc(O/C=C(\OCC)C(F)(F)F)cc1 [compound 102]
Test A disease control rating [1, 3]: 0%
Test B disease control rating [2, 4]: 0%

C#CCOC(=O)c1ccc(O/C=C(\OCC)C(F)(F)F)cc1 [compound 75]
Test A disease control rating [1, 3]: 0%
Test B disease control rating [2, 4]: 0%

CCOCc1cnn(Cc2ccc(OCC3(C(F)(F)F)OCCO3)cc2)c1 [compound 240]
Test A disease control rating [1, 3]: 99%
Test B disease control rating [2, 4]: 0%

CCO/C(=C\Oc1ccc(CN2CCC(C)(C)C2=O)cc1)C(F)(F)F [compound 225]
Test A disease control rating [1, 3]: 0%
Test B disease control rating [2, 4]: 0%

C=C(C)COC(=O)c1cnn(Cc2cccc(O/C=C(\OCC)C(F)(F)F)c2)c1 [compound 335]
Test A disease control rating [1, 5]: 100%
Test B disease control rating [2, 5]: 0%

CCOC(=O)c1cnn(Cc2ccc(O/C=C(/OCC)C(F)(F)F)cc2)c1 [compound 399]
pest or weed control at 50 ppm ([1]; Phakopsora pachyrhizi, 50 ppm test suspension, 0 = no control): 97%
pest or weed control at 50 ppm ([2]; Puccinia recondita, 50 ppm test suspension, 0 = no control): 0%

CCOC(=O)c1cn(Cc2cccc(O/C=C(\OCC)C(F)(F)F)c2)cn1 [compound 446]
pest or weed control at 10 ppm [1, 7]: 98%
pest or weed control at 10 ppm [2, 8]: 0%

O=C(OCc1ccccc1)c1cnn(Cc2ccc(OCC(O)(O)C(F)(F)F)cc2)c1 [compound 47]
Test A disease control rating [1, 9]: 100%
Test B disease control rating [2, 10]: 95%

FC(F)(F)C1(COc2ccc(CNC(=S)NC3CCCCC3)cc2)OCCO1 [compound 77]
Test A disease control rating [1, 3]: 99%
Test B disease control rating [2, 4]: 0%

O=C(OCC(F)(F)F)c1cnn(Cc2ccc(OCC(O)(O)C(F)(F)F)cc2)c1 [compound 45]
Test A disease control rating [1, 3]: 87%
Test B disease control rating [2, 4]: 85%

CCOC(=O)c1ccc(O/C=C(\OCC)C(F)(F)F)cc1 [compound 95]
Test A disease control rating [1, 3]: 0%
Test B disease control rating [2, 4]: 0%

CCOC(=O)Cc1nnn(Cc2ccc(O/C=C(\OCC)C(F)(F)F)cc2)n1 [compound 83]
Test A disease control rating [1, 3]: 82%
Test B disease control rating [2, 4]: 0%

O=C(NCC1CC1)c1csc(Cc2ccc(OCC(O)(O)C(F)(F)F)cc2)n1 [Compound 69]
Test A disease control rating [1, 3]: 98%
Test B disease control rating [2, 4]: 96%

CCO/C(=C\Oc1cccc(Cn2cc(C(=O)O)cn2)c1)C(F)(F)F [compound 323]
Test A disease control rating [1, 6]: 100%
Test B disease control rating [2, 6]: 0%

CCOC(=O)c1cnn(CCCc2cccc(OCC(O)(O)C(F)(F)F)c2)c1 [compound 417]
pest or weed control at 10 ppm [1, 7]: 0%
pest or weed control at 10 ppm [2, 8]: 0%

CCO/C(=C\Oc1ccc(C=O)cc1)C(F)(F)F [compound 148]
Test A disease control rating [1, 3]: 0%
Test B disease control rating [2, 4]: 0%

CCOC(=O)c1cnn(COc2cccc(O/C=C(\OCC)C(F)(F)F)c2)c1 [compound 321]
pest or weed control at 10 ppm [1, 7]: 100%
pest or weed control at 10 ppm [2, 8]: 0%

COC(=O)c1ccc(OCC2(C(F)(F)F)OCCO2)cc1 [compound 189]
Test A disease control rating [1, 3]: 0%
Test B disease control rating [2, 4]: 0%

CCO/C(=C\Oc1ccc(COC(N)=O)cc1)C(F)(F)F [compound 193]
Test A disease control rating [1, 3]: 0%
Test B disease control rating [2, 4]: 86%

CCO/C(=C\Oc1ccc(Cn2cnc(C(=O)OC)n2)cc1)C(F)(F)F [compound 123]
Test A disease control rating [1, 3]: 98%
Test B disease control rating [2, 4]: 0%

CCOC(=O)c1cnn(Cc2ccc(O/C=C(\OCCOC)C(F)(F)F)cc2)c1 [compound 54]
Test A disease control rating [1, 3]: 0%
Test B disease control rating [2, 4]: 0%

CCO/C(=C\Oc1ccc(Cn2ncnc2C#N)cc1)C(F)(F)F [compound 81]
Test A disease control rating [1, 3]: 0%
Test B disease control rating [2, 4]: 0%

O=C(OCc1ccccn1)c1cnn(Cc2ccc(OCC3(C(F)(F)F)OCCO3)cc2)c1 [compound 199]
Test A disease control rating [1, 3]: 100%
Test B disease control rating [2, 4]: 0%

CCOC(=O)c1cnn(C(C)c2ccc(OCC(O)(O)C(F)(F)F)cc2)c1 (stereo not drawn) [compound 35]
Test A disease control rating [1, 3]: 99%
Test B disease control rating [2, 4]: 32%

C=C(C)COC(=O)c1cnn(Cc2ccc(OCC3(C(F)(F)F)OCCO3)cc2)c1 [compound 228]
Test A disease control rating [1, 3]: 100%
Test B disease control rating [2, 4]: 0%

CCOC(=O)c1cnn(Cc2ccc(O/C=C(\OC)C(F)(F)F)cc2)c1 [compound 53]
Test A disease control rating [1, 9]: 100%
Test B disease control rating [2, 10]: 67%

CCO/C(=C\Oc1ccc(CN2OCC(C)(C)C2=O)cc1)C(F)(F)F [compound 92]
Test A disease control rating [1, 3]: 0%
Test B disease control rating [2, 4]: 0%

CCO/C(=C\Oc1cccc(Cc2nc(C(=O)NCC(F)(F)F)cs2)c1)C(F)(F)F [compound 377]
pest or weed control at 10 ppm [1, 7]: 44%
pest or weed control at 10 ppm [2, 8]: 0%

CCOC(=O)C1=NOC(c2ccc(O/C=C(\OCC)C(F)(F)F)cc2)C1 (stereo not drawn) [compound 278]
Test A disease control rating [1, 6]: 94%
Test B disease control rating [2, 6]: 0%

CCOC(=O)c1cnn(CCCc2ccc(O/C=C(\OCC)C(F)(F)F)cc2)c1 [compound 294]
Test A disease control rating [1, 5]: 100%
Test B disease control rating [2, 5]: 0%

C=CCOC(=O)c1ccn(Cc2ccc(OC=C(OCC)C(F)(F)F)cc2)n1 [compound 291]
Test A disease control rating [1, 5]: 100%
Test B disease control rating [2, 5]: 0%

CCO/C(=C\Oc1cccc(Cn2cc(C(=O)OCCC(F)=C(F)F)cn2)c1)C(F)(F)F [compound 349]
Test A disease control rating [1, 5]: 100%
Test B disease control rating [2, 5]: 0%

CCOC(=O)c1cnn(Cc2ccc(OC(F)(F)C3(C(F)(F)F)OCCO3)cc2)c1 [compound 319]
Test A disease control rating [1, 6]: 100%
Test B disease control rating [2, 6]: 41%

CN(C)C(=O)C1=NOC(c2ccc(OCC3(C(F)(F)F)OCCO3)cc2)C1 (stereo not drawn) [compound 22]
Test A disease control rating [1, 3]: 38%
Test B disease control rating [2, 4]: 0%

CC(C)CS(=O)(=O)NCc1ccc(OCC2(C(F)(F)F)OCCO2)cc1 [compound 76]
Test A disease control rating [1, 3]: 0%
Test B disease control rating [2, 4]: 0%

C=CCO/C(=C\Oc1ccc(Cn2cc(C(=O)OCC)cn2)cc1)C(F)(F)F [compound 55]
Test A disease control rating [1, 3]: 0%
Test B disease control rating [2, 4]: 0%

FC(F)(F)c1nc(-c2ccc(OCC3(C(F)(F)F)OCCO3)cc2)no1 [compound 173]
Test A disease control rating [1, 3]: 0%
Test B disease control rating [2, 4]: 0%

CN(C)S(=O)(=O)c1ccc(OCC2(C(F)(F)F)OCCO2)cc1 [compound 25]
Test A disease control rating [1, 3]: 0%
Test B disease control rating [2, 4]: 0%

CCOC(=O)c1cnn(C(C)c2ccc(OCC3(C(F)(F)F)OCCO3)cc2)c1 (racemic) [compound 26]
Test A disease control rating [1, 3]: 99%
Test B disease control rating [2, 4]: 0%

O=C(NCC(F)(F)F)c1cnc(Cc2ccc(OCC(O)(O)C(F)(F)F)cc2)s1 [compound 277]
Test A disease control rating [1, 5]: 50%
Test B disease control rating [2, 5]: 45%

CCO/C(=C\Oc1cccc(Cn2cc(C(=O)OCC3CC3)cn2)c1)C(F)(F)F [compound 341]
Test A disease control rating [1, 5]: 100%
Test B disease control rating [2, 5]: 0%
